These results are taken from patent publication US20160311788A1, “Antifouling Compounds And Use Thereof” (National University of Singapore, priority 2008, published 2016).

Converted amounts (≈) assume the structure as drawn. Read-outs that look alike come from different tables or passages of the source.

Data set [1] deals with marine bacteria strain S28. In words: disc inhibition assay, strain S28. In kind it is cell-based, Arthrobacter protophormial. The following applies: strain 28, 50 μg of compound per disc. In outline:
(§1)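 Compounds were applied at 50 μg per 6 mm disc (from 2 mg/ml DMSO stock; DMSO control) onto lawns of Singapore coastal fouling bacteria on marine agar. After overnight incubation in the dark at 35 °C, inhibition-zone diameters were caliper-measured; mean of two replicates.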

The subject of data set [2] is marine bacteria strain S27. In words: disc inhibition assay, strain S27. In kind it is cell-based, Tenacibaculum lutimaris. The following applies: strain 27, 50 μg of compound per disc; for zone of inhibition at 50 µg/disc: Tenacibaculum lutimaris, S27, 24 h, read-out: zone of inhibition. In outline:
as §1

Data set [3] deals with cyprids of Balanus amphitrite. In words: barnacle settlement assay. It is filed as in vivo. The following applies: for IC50: Amphibalanus amphitrite, 24 h, Table 3(a), concentration that caused 50% settlement inhibition, 24 hours, cyprids, read-out: ED50 (the source's name). How it is done:
(§2) Pure compounds were suspended in DMSO and sonicated to obtain a stock solution of 50 mg ml^−1 in DMSO. This stock solution is stored at −20° C. in 4 ml amber screw cap vials. For the bioassays, a small volume of stock solution was added to 1 μm filtered seawater in a glass scintillation vial. This suspension was then sonicated around 10 minutes. Serial dilutions were generated to the required range of concentrations. Serial dilution of the equivalent amounts of DMSO in seawater was used as the control.
(§3) The barnacle bioassay method used follows from the method first introduced by Rittschof et al. (1992), and subsequently by other authors (Willemsen et al., 1998). This method is now standard practice for many antifouling screening of novel compounds.
Barnacle settlement assays were based on methodology from Rittschof et al. (1992). Barnacle larvae from field-collected adults were reared on an algal mixture of 1:1 v/v of Tetraselmis suecica and Chaetoceros muelleri at 25° C., at approximately 5×10^5 cells per ml density. On this regime, larvae metamorphose to cyprids in 5 days. These cyprids were aged at 4° C. for 2-3 days, and 45-70% settlement after 24 hours (Willemsen et al., 1998).
Settlement tests were conducted in 7 ml neutral glass vials (Samco® T1 03N1) 34 mm by 23 mm diameter, with 20-40 cyprids per well. Test solutions were made up to twice the required final concentration. 0.5 ml of test solution was added into each well, and cyprids were transferred into each well in 0.5 ml of seawater. Assays were done in triplicate. As before, there were two sets of controls, a blank control consisting 3 tubes of seawater only, and DMSO control consisting of the equivalent dilution series with DMSO without compound. After 24 hours, larvae that had attached and metamorphosed were enumerated and the result expressed as percentage settlement. Larvae not attached were scored as not settled. The assays were repeated and the concentration that caused 50% settlement inhibition (ED50) was determined by pro bit analysis using a basic computer program (Lieberman, 1983), or by estimation from graphed data.

The test system of data set [4] is marine bacteria strain S10. In words: disc inhibition assay, strain S10. It is filed as cell-based, Halobacillus trueperi. The following applies: strain 10, 50 μg of compound per disc. In outline: as §1
Data set [5] has as its system marine bacteria strain S16. The data set can be described thus: disc inhibition assay, strain S16. It is filed as cell-based, Pseudoalteromonas piscicida. To be noted: for zone of inhibition at 50 µg/disc: Pseudoalteromonas piscicida, S16, 24 h. In outline:
as §1

Data set [6] deals with marine bacteria strain S4. In words: disc inhibition assay, strain S4. In kind it is cell-based, Bacillus algicola. To be noted: strain 4, 50 μg of compound per disc; for zone of inhibition at 50 µg/disc: Guptibacillus algicola, S4, 24 h, read-out: zone of inhibition. In outline: as §1
For data set [7], the system named is marine bacteria strain S3. In words: disc inhibition assay, strain S3. In kind it is cell-based, Erythrobacter aquimaris. To be noted: strain 3, 50 μg of compound per disc; for zone of inhibition at 50 µg/disc: Qipengyuania aquimaris, S3, 24 h, read-out: zone of inhibition. In outline: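 Antibacterial susceptibility was measured by agar disc diffusion. Compounds dissolved in DMSO were applied to 6 mm sterile discs and laid on Marine Agar lawns of a Singapore coastal marine bacterium cultured in marine broth. After overnight dark incubation at 35° C, clearing zone diameters were measured with Vernier calipers, and the two replicates were averaged.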

The subject of data set [8] is marine bacteria strain S14. The data set can be described thus: disc inhibition assay, strain S14. The following applies: strain 14, 50 μg of compound per disc. In kind it is cell-based, Vibrio probioticus.
In data set [9] the test system is Stage II nauplii of Balanus amphitrite. In words: barnacle toxicity assay. In kind it is in vivo. The following applies: for LD50: Table 3(a), concentration that caused 50% mortality, 22 to 24 hours, Stage II nauplii. How it is done: as §2, §3
Toxicity assays were modified from Rittschof et al. (1992). Stage II naupliar larvae used in tests were obtained from Balanus amphitrite adults collected from inter-tidal rock walls at Kranji mangrove, Singapore. Larvae were collected from a container of adults by attraction to a point source of light and transferred to 500 ml of fresh seawater. Next, larvae were re-concentrated with a fiber optic light and added to assays.
Duplicate assays were conducted in 2 ml glass vials (La Pha Pack® PN 11-14-0544) in 1 ml of filtered seawater for 22 to 24 hours. The assays were repeated for confirmation. There were two sets of controls, a blank control consisting of 3 tubes of seawater only, and DMSO control consisting of the equivalent dilution series with DMSO without compound). For the compounds, there were 3 tubes of each for each test concentration. The assay was initiated by addition of barnacle naupliar in 50 μl of seawater. After 22 to 24 hours of incubation at 25-27° C. solutions containing test animals were transferred to a Bogorov tray and scored as living or dead. Moribund larvae were scored as dead. Results were confirmed by repeating the assay. Data were combined and the concentration that caused 50% mortality (LD50) was calculated by probit analysis using a basic computer program (Libermann, 1983). If data were not appropriate for probit analysis, the LD50 was estimated from graphed data.

Data set [10] deals with marine bacteria strain S30. In words: disc inhibition assay, strain S30. In kind it is cell-based, Bacillus borophilicus. The following applies: strain 30, 50 μg of compound per disc. In outline:
as §1

For data set [11], the system named is marine bacteria strain S9. The data set can be described thus: disc inhibition assay, strain S9. In kind it is cell-based, Bacillus algicola. The following applies: strain 9, 50 μg of compound per disc; for zone of inhibition at 50 µg/disc: Guptibacillus algicola, S9, 24 h, read-out: zone of inhibition. In outline:
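Read-out is the diameter of the zone of clearing around each disc, measured with Vernier calipers and averaged over duplicates. Each disc carried 50 μg of compound applied from a 2 mg/ml DMSO stock onto a Marine Agar bacterial lawn, incubated overnight at 35° C in darkness.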

The subject of data set [12] is marine bacteria strain S1. The data set can be described thus: disc inhibition assay, strain S1. In kind it is cell-based, Rhodovulum iodosum. To be noted: strain 1, 50 μg of compound per disc. In outline: as §1
Data set [13] deals with marine bacteria strain S18. The data set can be described thus: disc inhibition assay, strain S18. In kind it is cell-based, Microbacterium esteraromaticum. To be noted: strain 18, 50 μg of compound per disc.
Data set [14] has as its system marine bacteria strain S29. In words: disc inhibition assay, strain S29. It is filed as cell-based, Bacillus hwajinpoensis. The following applies: strain 29, 50 μg of compound per disc. In outline:
as §1

In data set [15] the test system is marine bacteria strain S17. The data set can be described thus: disc inhibition assay, strain S17. It is filed as cell-based, Gordonia terrae. To be noted: strain 17, 50 μg of compound per disc. In outline:
as §1

Setting [16] is: strain 16, 50 μg of compound per disc, read-out: zone of inhibition.
Setting [17] is: strain 16, 50 μg of compound per disc.

For the molecule `OC1(c2ccc(Cl)cc2)CCNCC1` [Compound 3.4], the zone of inhibition entry in data set [1], in data set [2], in data set [4], in data set [7], in data set [8] and in data set [10] was “−” each time. In addition, the zone of inhibition result in data set [12], in data set [13], in data set [14] and in data set [15] was “−” each time. Further, in data set [3], the IC50 stood at 43.9 µg/mL (≈ 208 µM). Further, the zone of inhibition at 50 µg/disc in data set [5] (setting [16]), in data set [6] and in [11] was 2 to 5 mm in each case. The molecule also registered an LD50 in [9] of 8.41 µg/mL.

Take `O=C(C(c1ccccc1)c1ccccc1)N1CCCCC1` [Compound 4.1, 2,2-Diphenyl-1-(piperidin-1-yl)ethanone]: the zone of inhibition at 50 µg/disc in data set [1] (Arthrobacter, S28, 24 h, read-out: zone of inhibition) lay in the range of 2 to 5 mm; in data set [2] it was 2 to 5 mm; in data set [4] (Halobacillus trueperi, S10, 24 h, read-out: zone of inhibition), 2 to 5 mm; in [6], 2 to 5 mm; in [7], 5 to 10 mm; in [11], 2 to 5 mm. The zone of inhibition at 50 µg/disc is 2 to 5 mm in data set [13] (Microbacterium esteraromaticum, S18, 24 h, read-out: zone of inhibition) and 2 to 5 mm in [15] (Gordonia terrae, S17, 24 h, read-out: zone of inhibition). Moreover, the “anti-settlement activity in words” value in [3] was “displayed anti-settlement activity”. Besides, the IC50 in data set [3] was determined as 2.35 µg/mL (≈ 8.41 µM). Besides, the zone of inhibition result in data set [5] (setting [17]), in data set [8], in data set [10], in data set [12] and in [14] was “−” in each case. The same molecule came in with an LD50 in data set [9] of over 50 µg/mL. In data set [9] (in vivo), the “naupliar toxicity in words” value is given as “no observable naupliar toxicity”.

Take `CN1CCC(O)(c2ccccc2)CC1` [Compound 4.4]: the zone of inhibition entry in [1], in [2], in data set [4], in [6], in [7] and in data set [8] was “−” in each case. Further, the zone of inhibition result in data set [10], in [11], in data set [12], in data set [13], in data set [14] and in data set [15] was “−” in each case. The IC50 in data set [3] was 5.98 µg/mL (≈ 31.3 µM). The molecule further showed a zone of inhibition at 50 µg/disc in data set [5] of 2 to 5 mm. Besides, in [9], the LD50 is 12.35 µg/mL.

On to `O=C(C(c1ccccc1)c1ccccc1)N1CCC(O)(c2ccccc2)CC1` [Compound 4.5], for which the zone of inhibition result in data set [1], in [2], in [4], in [5] (setting [17]), in data set [6] and in data set [8] was “−” throughout. Moreover, the zone of inhibition entry in data set [10], in [11], in [12], in data set [13], in data set [14] and in data set [15] was “−” in each case. Also, in data set [3], the IC50 was 6.48 µg/mL (≈ 17.4 µM). In data set [7], the zone of inhibition at 50 µg/disc was 5 to 10 mm. In [9], this molecule displayed an LD50 of over 50 µg/mL.

As for `O=C(Cc1ccccc1)N1CCC(O)(c2ccccc2)CC1` [Compound 10.4], the zone of inhibition entry in [1], in [4], in [6], in [8], in data set [10] and in [12] was “−” throughout. In addition, the zone of inhibition entry in data set [13], in data set [14] and in data set [15] was “−” each time. Besides, the zone of inhibition at 50 µg/disc in data set [2], in [5] (setting [16]), in data set [7] and in data set [11] was 2 to 5 mm each time. In addition, the IC50 in data set [3] was found to be 15 µg/mL (≈ 50.8 µM). For the same molecule, the LD50 in data set [9] was over 50 µg/mL.

`CCCCC(CCCC)C(=O)N(C)C` [Compound 12.3]: the zone of inhibition result in [1], in data set [2], in data set [4], in data set [5] (setting [17]), in data set [6] and in data set [7] was “−” each time. In addition, the zone of inhibition result in data set [8], in data set [10], in data set [11], in data set [12], in data set [13] and in data set [15] was “−” in each case. Moreover, in data set [3], the IC50 amounted to 2.76 µg/mL (≈ 13.8 µM). The molecule also came in with an LD50 in data set [9] of over 50 µg/mL. Further, the zone of inhibition at 50 µg/disc in data set [14] (Guptibacillus hwajinpoensis, S29, 24 h, read-out: zone of inhibition) was 2 to 5 mm.
